The nature of this series: MTT cytotoxicity assay in U937 cells. It counts as cell-based. As to conditions: human; for selectivity ratio at 24 h: U937 cells (CC50) versus 3D7 parasites (IC50), read-out: selectivity index (SI); for CC50 at 24 h: U937 cells, MTT. On the procedure:
As a final step in the investigational pipeline, we determined the cytotoxic effect of the four active analogues (6a, 6h, 6m and 6u) in U937 cell lines by measuring 50% cytotoxic concentrations (CC50) and calculating selectivity indices (SIs) as a measure of toxicity in human cells.
Cytotoxicity of the 4 select Pht compounds on human cells was evaluated by assessing cell viability of the U937, a human acute monocyte leukemia cell lines by use of the MTT assay. U937 was acquired from American Type Culture Collection (ATCC, Rockville, MD) and maintained in RPMI 1640 medium supplemented with 10% fetal bovine serum, and Penicillin-streptomycin (1% v/v) (Gibco, UK) at 37 °C. Robust U937 cells at a concentration of 80,000 cells/ml were plated into 96-well plates and incubated for 24 hours. Six concentrations of the Pht compounds were added in a two-fold dilution from starting concentration of 50 to 1.56 µM in triplicate and incubated with the cells for 24 hours. This was followed by addition of 10 µL MTT solution (5 mg/mL) into each well, incubated for 4 hour at 37 °C followed by addition of 50 µL DMSO to dissolve the formazan precipitate according to manufacturer’s protocol. Aliquots were drawn from each well and color intensity was measured spectrophotometrically in an ELISA plate reader (Biotek, ELx800) at 540 nm. The cell viability ratio was calculated by the following formula: % cytotoxicity = [Mean OD of test cells] − [Mean OD of control cells]/[Mean OD of control cells] × 100. Viability counts were then plotted against corresponding drug concentrations to yield cytotoxicity (CC50) through non-linear regression (sigmoid dose-response/variable slope equation). Drug CC50 values were then used to define selectivity indices, which is a measure of drug safety in human relative to parasitic cells and was calculated as the ratio of the CC50 value determined on the U937 cells (cytotoxicity) and the IC50 value determined on parasite growth inhibition 3D7 (anti-plasmodial activity). In this study, we set SI > 2 as cut-off as an indicative of low drug cytotoxicity.
(Formazan colour is commonly taken as a measure of viable cells.)

Drawing on publication PMC5532363, “Synergistic blending of high-valued heterocycles inhibits growth of Plasmodium falciparum in culture and P. berghei infection in mouse model” (Scientific Reports, 2017), this text covers selectivity ratio and CC50 for two compounds.

Regarding `CC[C@@H](C)[C@H](c1nc2ccccc2n1Cc1cn(-c2ccc(F)cc2)nn1)N1C(=O)c2ccccc2C1=O` [Compound 6h], the selectivity ratio at 24 h came out at 41.2 ± 1.7 and the CC50 at 24 h turned out to be 28.8 ± 0.67 µM.

Regarding `CC(C)C[C@H](c1nc2ccccc2n1Cc1c[nH]nn1)N1C(=O)c2ccccc2C1=O` [Compound 6u], the selectivity ratio at 24 h came to 2.31 ± 0.76 and the CC50 at 24 h was found to be 2.08 ± 1.6 µM.

As usually defined, the CC50 is the concentration at which the toxic effect on the cells reaches its halfway point. Lower therefore signals harm at low concentration.
